Key:
p21-inducible genes = experiment: RT-PCR of endogenous p21-inducible genes in LuNK4p21 cells; format: cell-based, human
Protocol: To determine whether NFκB-inhibiting NSAID inhibited not only the induction of transcription from the NK4 promoter but also RNA expression of the endogenous p21-inducible genes, LuNK4p21 cells were plated at 125,000 cells per well in 6-well plates and were either untreated or treated with 50 μM IPTG for 48 hrs (the period of time required for maximal stimulation of p21-inducible genes; Chang et al., 2000, Proc. Natl. Acad. Sci. USA 97: 4291-4296), in the presence or in the absence of sulindac, at 250 μM, 500 μM or 1 mM concentrations. After this incubation, RNA was extracted from the cells using Qiagen RNeasy Mini Kit, and relative RNA levels of several p21-inducible genes were determined by reverse transcription-PCR (RT-PCR), essentially as described by Noonan et al. (1990, Proc. Natl. Acad. Sci. USA 87: 7160-7164), except that β-actin rather than β2-microglobulin was used for cDNA normalization. The PCR cycles were as follows: for the 1st cycle, 3 min for denaturation, 2 min for annealing and 2 min for extension, and the rest of cycles, 30 sec for denaturation; 30 sec for annealing; and 1 min for extension.

NK4 promoter = experiment: Luciferase assay in LuNK4p21 cell line (NK4 promoter-luciferase, IPTG-inducible p21); format: cell-based, human
Protocol: This assay was performed as follows. Cells were plated at a density of 40,000 cells/well in 12 well plates in 1 mL of media containing penicillin/streptomycin, glutamine and 10% fetal calf serum (FCS). After attachment, cells were treated with 50 μM IPTG or left untreated for different periods of time. Luciferase activity was then measured as described in Example 8 above. An additional aliquot was removed from the cell lysate to measure protein concentration using the Bio-Rad protein assay kit (Bradford assay). Luciferase activity for each sample was normalized to protein content and expressed as luciferase activity/μg protein.
Luciferase assays were performed substantially as described in Example 9. Luciferase activity was measured after 16 hrs of incubation with or without 50 μM IPTG, followed by an additional 20 hr treatment in the presence or in the absence of 20 mM sodium salicylate, 1 mM sulindac, or 10 mM aspirin. […] NSAID concentrations were based on the pharmacologic concentrations of these agents in the serum of patients required for their anti-inflammatory properties (Yin et al., 1998, ibid.).

CDK6 = CDK6 (UniProt Q00534); experiment: cell-based or functional assay
Sequence of CDK6 (Q00534 whole entry): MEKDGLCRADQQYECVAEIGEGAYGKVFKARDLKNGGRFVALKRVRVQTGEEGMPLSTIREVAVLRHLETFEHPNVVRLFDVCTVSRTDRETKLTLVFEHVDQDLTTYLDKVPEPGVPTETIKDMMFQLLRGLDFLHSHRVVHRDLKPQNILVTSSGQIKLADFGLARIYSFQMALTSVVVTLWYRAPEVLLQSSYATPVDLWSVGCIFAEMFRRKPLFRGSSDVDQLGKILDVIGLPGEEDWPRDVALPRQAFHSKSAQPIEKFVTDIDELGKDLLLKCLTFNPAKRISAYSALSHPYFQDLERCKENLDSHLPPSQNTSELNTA

CDK4 = CDK4 (UniProt P11802); experiment: cell-based or functional assay
Sequence of CDK4 (P11802 2-303 limits assumed): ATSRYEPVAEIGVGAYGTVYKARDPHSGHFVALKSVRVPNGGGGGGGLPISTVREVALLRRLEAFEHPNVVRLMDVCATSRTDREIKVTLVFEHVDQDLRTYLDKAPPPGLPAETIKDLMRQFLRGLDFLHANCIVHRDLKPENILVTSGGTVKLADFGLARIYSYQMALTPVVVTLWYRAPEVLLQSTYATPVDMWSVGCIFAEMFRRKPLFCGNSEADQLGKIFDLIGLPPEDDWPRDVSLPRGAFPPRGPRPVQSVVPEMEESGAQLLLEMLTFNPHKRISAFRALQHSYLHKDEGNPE

[1] = 25 μM NSAID for 20 hr after 16 hrs with 50 μM IPTG

In the case of CC1=C(CC(=O)O)c2cc(F)ccc2/C1=C\c1ccc([S+](C)[O-])cc1 (stereo not shown) [sulindac], the “effects of IPTG on APP gene RNA” value (p21-inducible genes; 250 and 500 μM sulindac) is reported as “diminished”, the “NK4 gene expression (RNA)” value (p21-inducible genes; absence of IPTG, sulindac 250 μM, 500 μM or 1 mM, 48 hrs) is reported as “very little effect” and the “gene expression of all the other tested genes” value (p21-inducible genes; absence of IPTG, sulindac 250 μM-1 mM) is reported as “dose-dependent increase”. The “t-TGase RNA” value (p21-inducible genes; compared with NK4, with and without IPTG, sulindac 250 μM-1 mM) was “Very similar results”, the “p21-induced transcription of most of the tested genes” value (p21-inducible genes; moderate dose of sulindac (250 μM)) was “inhibits the ability of p21 to induce transcription” and the “effects of IPTG on CTGF gene RNA” value (p21-inducible genes; only by 250 μM sulindac) was “diminished”. The “effects of IPTG on Mac2-binding protein (Mac2-BP) gene RNA” value (p21-inducible genes; only by 250 μM sulindac) was “diminished”, the “effects of IPTG on p66Shc gene RNA” value (p21-inducible genes; only by 250 μM sulindac) was “diminished” and the “NK4 RNA levels” value (p21-inducible genes; presence of 50 μM IPTG, all concentrations of sulindac (250 μM, 500 μM, 1 mM), 48 hrs) was “dose-dependent decrease”. For the same molecule, the “gene expression of all the other tested genes” value (p21-inducible genes; presence of IPTG, highest dose of sulindac (1 mM)) was “did not decrease gene expression”, the “IPTG-induced RNA levels of prosaposin” value (p21-inducible genes; sulindac 250 μM, 500 μM, 1 mM) was “None of the tested sulindac concentrations produced a significant decrease” and the “IPTG-induced RNA levels of superoxide dismutase 2 (SOD2)” value (p21-inducible genes; sulindac 250 μM, 500 μM, 1 mM) was “None of the tested sulindac concentrations produced a significant decrease”. The “induction of luciferase expression by IPTG” value (“induction” below) (NK4 promoter; 1 mM sulindac for 20 hr after 16 hrs with 50 μM IPTG) was “completely or almost completely abolished”.

In the case of O=C([O-])c1ccccc1O.[Na+] [sodium salicylate], the “induction” value (NK4 promoter; 20 mM sodium salicylate for 20 hr after 16 hrs with 50 μM IPTG) is reported as “completely or almost completely abolished”.

For CC(C)Cc1ccc(C(C)C(=O)O)cc1 (stereo not shown) [ibuprofen], the “induction” value (NK4 promoter; [1]) was “no significant difference”.

For COc1ccc2c(c1)c(CC(=O)O)c(C)n2C(=O)c1ccc(Cl)cc1 [indomethacin], the “induction” value (NK4 promoter; [1]) was “no significant difference”.

For CC(=O)Oc1ccccc1C(=O)O [aspirin], the “induction” value (NK4 promoter; 10 mM aspirin for 20 hr after 16 hrs with 50 μM IPTG) was “completely or almost completely abolished”.

Work on p16^Ink4A (from UniProt P42771 1-156) yielded a cells arrested in G1 after 24 hrs of IPTG treatment (FACS analysis of DNA content) (CDK6) of 93% and a cells arrested in G1 after 24 hrs of IPTG treatment (FACS analysis of DNA content) (CDK4) of 93%.

Source: patent publication US20030157704A1, “Reagents and methods for identifying and modulating expression of genes regulated by CDK inhibitors” (priority 2001, published 2003)
